{"source": "patent US6534285B1", "about": "(priority 1984, dated 2003)", "origin": "cited, not measured here", "biological_target": "AIDS reverse transcriptase (Human immunodeficiency virus type 1 group M subtype B, UniProt P04585)", "conditions": "reference 53"}
{"smiles": "Cc1ccc(C(=O)Nc2ccc(S(=O)(=O)O)c3cc(S(=O)(=O)O)cc(S(=O)(=O)O)c23)cc1NC(=O)c1cccc(NC(=O)Nc2cccc(C(=O)Nc3cc(C(=O)Nc4ccc(S(=O)(=O)O)c5cc(S(=O)(=O)O)cc(S(=O)(=O)O)c45)ccc3C)c2)c1", "note": "[Suramin]", "values": [{"measurement": "inhibition of AIDS reverse transcriptase", "result": "known inhibitor"}]}
